According to patent US8618137B2 (priority 2008, dated 2013):
Read-outs that look alike come from different tables or passages of the source. Marks after values point to notes of the source that are not given here.

How the values were obtained:
Assay type in all cases: in vivo
[1] = system: Phytophthora infestans (the causal agent of tomato late blight); conditions: sprayed 17 h after inoculation, 100 = 100% disease control, 0 = no control
[2] = system: Phytophthora infestans (the causal agent of tomato late blight); conditions: sprayed the day before inoculation, 100 = 100% disease control, 0 = no control
[3] = system: Plasmopara viticola (the causal agent of grape downy mildew); assay: Test A: grape downy mildew, grape seedlings inoculated then sprayed with test suspension, visual disease rating; conditions: 100 = 100% disease control, 0 = no control relative to controls
Excerpt: General protocol for preparing test suspensions for Tests A-B2: The test compounds were first dissolved in acetone in an amount equal to 3% of the final volume and then suspended at the desired concentration (in ppm) in acetone and purified water (50/50 mix by volume) containing 250 ppm of the surfactant Trem® 014 (polyhydric alcohol esters). The resulting test suspensions were then used in Tests A-B2. Spraying a 200 ppm test suspension to the point of run-off on the test plants was the equivalent of a rate of 800 g/ha.
Grape seedlings were inoculated with a spore suspension of Plasmopara viticola (the causal agent of grape downy mildew) and incubated in a saturated atmosphere at 20° C. for 24 h. After a short drying period, the grape seedlings were sprayed with the test suspension to the point of run-off, then moved to a growth chamber at 20° C. for 5 days, and then back into a saturated atmosphere at 20° C. for 24 h. Upon removal, visual disease ratings were made.
Results for Tests A-B2 are given in Table A. In the Table, a rating of 100 indicates 100% disease control and a rating of 0 indicates no disease control (relative to the controls). All results are for 10 ppm except where followed by an “*” which indicates 40 ppm and “**” which indicates 200 ppm.

[4] = test suspension 10 ppm, listed as 2

Row | Molecule | Test B2 rating (disease control) ([1]; test suspension 10 ppm) [%] | Test B1 rating (disease control) ([2]; test suspension 10 ppm) [%] | Test A rating (disease control) ([3]; test suspension 10 ppm) [%] | Test B2 rating (disease control) ([1]; test suspension 40 ppm (*)) | Test B1 rating (disease control) ([2]; test suspension 40 ppm (*)) | Test A rating (disease control) ([3]; test suspension 40 ppm (*)) | also measured
1 | 1-[4-[4-[5-(2,6-difluorophenyl)-4,5-dihydro-3-isoxazolyl]-2-thiazolyl]-1-piperidinyl]-2-(4,5-dihydro-3,5-dimethyl-1H-pyrazol-1-yl]ethanone [Compound 40] | 98 | 100 | 100 |  |  |  | 
2 | 2,2,2-trifluoroacetaldehyde, O-[2-[4-[4-[5-(2,6-difluorophenyl)-4,5-dihydro-3-isoxazolyl]-2-thiazolyl]-1-piperidinyl]-2-oxoethyl]oxime [Compound 3] | 99 | 100 | 100 |  |  |  | 
3 | CC(C)=NOC(C(=O)N1CCC(c2nc(C3=NOC(c4c(F)cccc4F)C3)cs2)CC1)c1ccccc1 (mixture of isomers) [compound 32] |  |  |  | 92* % | 100* % | 94* % | 
4 | CCC(ON=C(C)C)C(=O)N1CCC(c2nc(C3=NOC(c4c(F)cccc4F)C3)cs2)CC1 (mixture of isomers) [compound 39] |  |  |  | 99* % | 100* % | 100* % | 
5 | CC(=NOCC(=O)N1CCC(c2nc(C3=NOC(c4c(F)cccc4F)C3)cs2)CC1)C(F)(F)F (racemic) [Compound 4] | 99 | 100 | 100 |  |  |  | 
6 | CCCC=NOCC(=O)N1CCC(c2nc(C3=NOC(c4c(F)cccc4F)C3)cs2)CC1 (racemic) [compound 10] | 88 | 95 | 98 |  |  |  | 
7 | CSC(=NOCC(=O)N1CCC(c2nc(C3=NOC(c4c(F)cccc4F)C3)cs2)CC1)C(=O)N(C)C (racemic) [compound 11] | 0 | 26 | 0 |  |  |  | 
8 | CSC(C)=NOCC(=O)N1CCC(c2nc(C3=NOC(c4c(F)cccc4F)C3)cs2)CC1 (racemic) [compound 12] | 0 | 47 | 17 |  |  |  | 
9 | CC(C)=NOCC(=O)N1CCC(c2nc(C3=NOC(c4ccccc4C)C3)cs2)CC1 (racemic) [compound 14] | 88 | 98 | 100 |  |  |  | 
10 | CCC(C)=NOCC(=O)N1CCC(c2nc(C3=NOC(c4c(F)cccc4F)C3)cs2)CC1 (racemic) [compound 16] | 99 | 100 | 100 |  |  |  | 
11 | O=C(CON=CC(Cl)(Cl)Cl)N1CCC(c2nc(C3=NOC(c4c(F)cccc4F)C3)cs2)CC1 (racemic) [compound 17] | 47 | 97 | 66 |  |  |  | 
12 | N#Cc1ccccc1C1CC(c2csc(C3CCN(C(=O)CON=CC(F)(F)F)CC3)n2)=NO1 (racemic) [compound 20] | 99 | 100 | 100 |  |  |  | 
13 | CC(C)=NOCCC(=O)N1CCC(c2nc(C3=NOC(c4c(F)cccc4F)C3)cs2)CC1 (racemic) [compound 21] |  |  |  | 98* % | 100* % | 100* % | 
14 | CC=NOCC(=O)N1CCC(c2nc(C3=NOC(c4c(F)cccc4F)C3)cs2)CC1 (racemic) [compound 22] | 99 | 100 | 100 |  |  |  | 
15 | CCC(=NOCC(=O)N1CCC(c2nc(C3=NOC(c4c(F)cccc4F)C3)cs2)CC1)C(F)(F)F (racemic) [compound 23] | 83 | 99 | 98 |  |  |  | 
16 | CC(CC(C)C)=NOCC(=O)N1CCC(c2nc(C3=NOC(c4c(F)cccc4F)C3)cs2)CC1 (racemic) [compound 25] |  |  |  | 58* % | 100* % | 93* % | 
17 | CC(CC(F)(F)F)=NOCC(=O)N1CCC(c2nc(C3=NOC(c4c(F)cccc4F)C3)cs2)CC1 (racemic) [compound 26] | 99 | 100 | 100 |  |  |  | 
18 | CC(C)C=NOCC(=O)N1CCC(c2nc(C3=NOC(c4c(F)cccc4F)C3)cs2)CC1 (racemic) [compound 27] |  |  |  | 99* % | 100* % | 98* % | 
19 | CC(C)CC=NOCC(=O)N1CCC(c2nc(C3=NOC(c4c(F)cccc4F)C3)cs2)CC1 (racemic) [compound 28] |  |  |  | 68* % | 95* % | 98* % | 
20 | CCC=NOCC(=O)N1CCC(c2nc(C3=NOC(c4c(F)cccc4F)C3)cs2)CC1 (racemic) [compound 30] |  |  |  | 99* % | 100* % | 100* % | 
21 | CC(C)(C)OC(=O)NCCC(=O)N1CCC(c2nc(C3=NOC(c4c(F)cccc4F)C3)cs2)CC1 (racemic) [compound 33] |  |  |  |  |  |  | Test B2 rating (disease control) ([1]; test suspension 200 ppm (**)): 0** %; Test B1 rating (disease control) ([2]; test suspension 200 ppm (**)): 68** %; Test A rating (disease control) ([3]; test suspension 200 ppm (**)): 0** %
22 | O=C(CCNC(=O)C(F)(F)F)N1CCC(c2nc(C3=NOC(c4c(F)cccc4F)C3)cs2)CC1 (racemic) [compound 34] |  |  |  |  |  |  | Test B2 rating (disease control) ([1]; test suspension 200 ppm (**)): 40** %; Test B1 rating (disease control) ([2]; test suspension 200 ppm (**)): 97** %; Test A rating (disease control) ([3]; test suspension 200 ppm (**)): 33** %
23 | O=C(CON=CC(F)(F)F)N1CCC(c2nc(C3=NOC(c4c(F)cccc4F)C3)cs2)CC1 (stereo not drawn) [Compound 3, 2,2,2-trifluoroacetaldehyde, O-[2-[4-[4-[5-(2,6-difluorophenyl)-4,5-dihydro-3-isoxazolyl]-2-thiazolyl]-1-piperidinyl]-2-oxoethyl]oxime] | 99 | 100 | 100 |  |  |  | 
24 | O=C(CON=C1CCCC1)N1CCC(c2nc(C3=NOC(c4c(F)cccc4F)C3)cs2)CC1 (stereo not drawn) [Compound 5] | 98 | 95 | 95 |  |  |  | Test B2 rating (disease control) [1, 4]: 100%; Test B1 rating (disease control) [2, 4]: 100%; Test A rating (disease control) [3, 4]: 100%
25 | C[C@H](c1ccccc1)N(C)C(=O)c1csc(C2CCN(C(=O)CON=CC(F)(F)F)CC2)n1 [Compound 31, N-methyl-N-[(1R)-1-phenylethyl]-2-[1-[2-[[(2,2,2-trifluoroethylidene)amino]oxy]acetyl]-4-piperidinyl]-4-thiazolecarboxamide] |  |  |  | 99* % | 100* % | 100* % | 
26 | CN(CC(=O)N1CCC(c2nc(C3=NOC(c4c(F)cccc4F)C3)cs2)CC1)N=CC(F)(F)F (stereo not drawn) [Compound 35] |  |  |  | 99* % | 100* % | 100* % | 
27 | CN(CC(=O)N1CCC(c2nc(C3=NOC(c4c(F)cccc4F)C3)cs2)CC1)NC(=O)C(F)(F)F (stereo not drawn) [Compound 36, 2,2,2-trifluoroacetic acid 2-[2-[4-[5-(2,6-difluorophenyl)-4,5-dihydro-3-isoxazolyl]-2-thiazolyl-1-piperidinyl]-2-oxoethyl]-2-methylhydrazide] |  |  |  |  |  |  | Test B2 rating (disease control) ([1]; test suspension 200 ppm (**)): 93** %; Test B1 rating (disease control) ([2]; test suspension 200 ppm (**)): 100** %; Test A rating (disease control) ([3]; test suspension 200 ppm (**)): 60** %
28 | O=C(CONC(=O)C(F)(F)F)N1CCC(c2nc(C3=NOC(c4c(F)cccc4F)C3)cs2)CC1 (stereo not drawn) [Compound 38] | 90 | 90 | 98 | 99* % | 100* % | 99* % | 
29 | CC1=NN(CC(=O)N2CCC(c3nc(C4=NOC(c5c(F)cccc5F)C4)cs3)CC2)C(C)C1 (stereo not drawn) [Compound 40, 1-[4-[4-[5-(2,6-difluorophenyl)-4,5-dihydro-3-isoxazolyl]-2-thiazolyl]-1-piperidinyl]-2-(4,5-dihydro-3,5-dimethyl-1H-pyrazol-1-yl]ethanone] |  |  |  | 99* % | 100* % | 97* % | 
30 | CC(C)=NOCC(=O)N1CCC(c2nc(C3=NOC4(CCc5ccccc54)C3)cs2)CC1 (stereo not drawn) [compound 13] | 99 | 99 | 99 |  |  |  | 
